Data: EP1167342A1, “Novel substituted nitrocatechols, their use in the treatment of some central and peripheral nervous system disorders and pharmaceutical compositions containing them” (Portela & Ca., S.A., priority 2000, dated 2002)

What was measured:
COMT = target: T1, COMT (Homo sapiens, UniProt P21964); assay: COMT activity in intact SK-N-SH cells (methylation of adrenaline to metanephrine, HPLC with electrochemical detection); assay type: cell-based; settings: concentration of test compound 100 nM, means ±SEM of n=4-8
T1 construct: COMT activity was evaluated in cell monolayers by the ability to methylate adrenaline; host or cells: SK-N-SH
T1 sequence (P21964 1-271): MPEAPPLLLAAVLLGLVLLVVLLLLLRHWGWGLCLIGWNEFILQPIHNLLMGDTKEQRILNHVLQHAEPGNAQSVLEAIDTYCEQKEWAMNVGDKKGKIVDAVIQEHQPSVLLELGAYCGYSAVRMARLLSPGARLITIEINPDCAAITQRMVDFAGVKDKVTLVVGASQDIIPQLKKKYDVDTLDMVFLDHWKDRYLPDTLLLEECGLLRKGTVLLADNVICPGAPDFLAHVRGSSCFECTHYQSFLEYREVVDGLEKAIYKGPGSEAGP

Liver COMT = assay: Ex vivo COMT activity in mouse liver homogenates after administration of test compound by gastric tube; parameters: species or system NMRI mice; settings: for Liver COMT (% of control) 1h / Liver COMT (% of control) 6h: homogenates of mice liver, dose not given, means±S.E.M. of 4-8 experiments; for Liver COMT (% of control) 1h: 1 h after administration by gastric tube; for Liver COMT (% of control) 6h: 6 h after administration by gastric tube; for potency upon liver COMT compared with brain COMT: mice, after oral administration, statement in words
Brain COMT = assay: Ex vivo COMT activity in mouse brain homogenates after administration of test compound by gastric tube; parameters: species or system NMRI mice; settings: for Brain COMT (% of control) 1h / Brain COMT (% of control) 6h: homogenates of mice brain, dose not given, means±S.E.M. of 4-8 experiments; for Brain COMT (% of control) 1h: 1 h after administration by gastric tube; for Brain COMT (% of control) 6h: 6 h after administration by gastric tube

| SMILES | COMT activity (% of control) (COMT) | Liver COMT (% of control) 1h (Liver COMT) | Liver COMT (% of control) 6h (Liver COMT) | Brain COMT (% of control) 1h (Brain COMT) | Brain COMT (% of control) 6h (Brain COMT) | potency upon liver COMT compared with brain COMT (Liver COMT) | activity in the brain (Brain COMT; conclusion, statement in words) |
| --- | --- | --- | --- | --- | --- | --- | --- |
| Cl.Cl.Cl.O=C(CN1CCN(c2ccccn2)CC1)c1cc(O)c(O)c([N+](=O)[O-])c1 [Compound 14, 1-(3,4-Dihydroxy-5-nitro-phenyl)-2-(4-pyridin-2-yl-piperazin-1-yl)-ethanone trihydrochloride] | 8.5±0.3 % of control | 33.6±5.6 % of control | 50.3±5.6 % of control | 95.4±11.4 % of control | 121.2±11.8 % of control |  |  |
| Cl.N#CC1(c2ccccc2)CCN(CCC(=O)c2cc(O)c(O)c([N+](=O)[O-])c2)CC1 [Compound 15, 1-[3-(3,4-Dihydroxy-5-nitro-phenyl)-3-oxo-propyl]-4-phenyl-piperidine-4-carbonitrile hydrochloride] | 2.9±0.3 % of control | 51.7±5.9 % of control | 37.9±8.4 % of control | 93.0±9.0 % of control | 122.0±9.0 % of control |  |  |
| Cl.O=C(CCN1CCCCCCC1)c1cc(O)c(O)c([N+](=O)[O-])c1 [Compound 16, 3-Azocan-1-yl-1-(3,4-dihydroxy-5-nitro-phenyl)-propan-1-one hydrochloride] | 3.2±0.2 % of control | 22.1±3.4 % of control | 71.7±21.6 % of control | 25.0±13.0 % of control | 95.0±12.0 % of control | equally potent in inhibiting liver and brain COMT activity |  |
| CCOC(=O)C1CCN(CCC(=O)c2cc(O)c(O)c([N+](=O)[O-])c2)CC1.Cl [Compound 17, 1-[3-(3,4-Dihydroxy-5-nitro-phenyl)-3-oxo-propyl]-piperidine-4-carboxylic acid ethyl ester hydrochloride] | 7.7±0.5 % of control | 36.8±2.3 % of control | 69.6±8.9 % of control | 96.0±5.0 % of control | 109.0±14.0 % of control |  |  |
| Cl.Cl.O=C(CCN1CCN(c2cccc(C(F)(F)F)c2)CC1)c1cc(O)c(O)c([N+](=O)[O-])c1 [Compound 18, 1-(3,4-Dihydroxy-5-nitro-phenyl)-3-[4-(3-trifluoromethyl-phenyl)-piperazin-1-yl]-propan-1-one dihydrochloride] | 4.2±0.2 % of control | 18.5±6.8 % of control | 26.3±3.9 % of control | 86.0±14.0 % of control | 86.0±11.0 % of control | much more potent upon liver COMT than brain COMT | limited activity in the brain |
| Cl.O=C(CCN1CCSCC1)c1cc(O)c(O)c([N+](=O)[O-])c1 [Compound 19, 1-(3,4-Dihydroxy-5-nitro-phenyl)-3-thiomorpholin-4-yl-propan-1-one hydrochloride] | 6.8±2.3 % of control | 30.3±4.0 % of control | 57.9±8.6 % of control | 93.0±19.0 % of control | 107.0±3.0 % of control |  |  |
| Cl.O=C(CCN1CCCCCC1)c1cc(O)c(O)c([N+](=O)[O-])c1 [Compound 20, 3-Azepan-1-yl-1-(3,4-dihydroxy-5-nitro-phenyl)-propan-1-one hydrochloride] | 3.6±0.3 % of control | 39.0±2.0 % of control | 64.0±12.0 % of control | 106.0±9.0 % of control | 125.0±5.0 % of control |  |  |
| Cl.O=C(CN1CCc2ccccc2C1)c1cc(O)c(O)c([N+](=O)[O-])c1 [Compound 21, 2-(3,4-Dihydro-1H-isoquinolin-2-yl)-1-(3,4-dihydroxy-5-nitro-phenyl)-ethanone hydrochloride] | 0.9±0.6 % of control | 55.1±5.0 % of control | 77.5±18.0 % of control | 96.0±8.0 % of control | 104.0±17.0 % of control |  |  |
| Cl.Cl.O=C(CCN1CCN(c2ccccc2Cl)CC1)c1cc(O)c(O)c([N+](=O)[O-])c1 [Compound 22, 3-[4-(2-Chloro-phenyl)-piperazin-1-yl]-1-(3,4-dihydroxy-5-nitro-phenyl)-propan-1-one dihydrochloride] | 0.0±0.0 % of control | 54.2±7.5 % of control | 71.7±0.4 % of control | 94.0±3.0 % of control | 96.0±18.0 % of control |  |  |
| Cl.Cl.Cl.Cl.O=C(CCN1CCN(c2ncccn2)CC1)c1cc(O)c(O)c([N+](=O)[O-])c1 [Compound 23, 1-(3,4-Dihydroxy-5-nitro-phenyl)-3-(4-pyrimidin-2-yl-piperazin-1-yl)-propan-1-one tetrahydrochloride] | 4.4±0.9 % of control | 30.0±2.5 % of control | 56.3±6.0 % of control | 87.0±6.0 % of control | 123.0±12.0 % of control |  |  |
| Cl.O=C(CCN1CCC(Cc2ccccc2)CC1)c1cc(O)c(O)c([N+](=O)[O-])c1 [Compound 24, 3-(4-Benzyl-piperidin-1-yl)-1-(3,4-dihydroxy-5-nitro-phenyl)-propan-1-one hydrochloride] | 0.0±0.0 % of control | 16.5±1.5 % of control | 37.7±3.9 % of control | 33.0±8.0 % of control | 98.0±2.0 % of control |  |  |
| O=C(COc1cccc2ccccc12)c1cc(O)c(O)c([N+](=O)[O-])c1 [Compound 25, 1-(3,4-Dihydroxy-5-nitro-phenyl)-2-(naphthalen-1-yloxy)-ethanone] | 0.0±0.0 % of control | 13.7±1.9 % of control | 31.1±5.5 % of control | 62.8±5.1 % of control | 92.4±10.8 % of control |  |  |
| CC1CCCCN1CCC(=O)c1cc(O)c(O)c([N+](=O)[O-])c1.Cl (centres unmarked) [Compound 26, 1-(3,4-Dihydroxy-5-nitro-phenyl)-3-(2-methyl-piperidin-1-yl)-propan-1-one hydrochloride] | 4.8±0.4 % of control | 18.3±2.9 % of control | 55.2±4.7 % of control | 69.8±3.2 % of control | 89.6±13.4 % of control |  |  |
